Results taken from PMC9008576, “Characterization of Agarolytic Pathway in a Terrestrial Bacterium Cohnella sp. LGH” (Frontiers in Microbiology, 2022).

Legend:
CL5012 = test system: T1, CL5012; test: L-AHG release, non-linear regression; type: biochemical, Cohnella sp. LGH; details: 10 mM Tris-HCl pH 8.0, 35°C, 10 min, 0.5–7.5 mg/ml substrate
T1 construct: pET29a (NdeI/XhoI), E. coli BL21(DE3) pLysS, Ni-NTA (C-terminal His tag likely); GH117

CL4994 = test system: T2, CL4994; test: agarotriose consumption, non-linear regression; type: biochemical, Cohnella sp. LGH; details: 10 mM potassium phosphate pH 7.0, 30°C, 10 min, 0.5–7.5 mg/ml substrate
T2 construct: pET29a (KpnI/XhoI), E. coli BL21(DE3) pLysS, Ni-NTA (vector tags kept); GH2

AgWH2A = biological target: T3, AgWH2A (Agarivorans gilvus, UniProt A0A2Z4WWH8); test: TLC of products; type: biochemical; details: 10 mM potassium phosphate pH 7.5, 30°C, 4 h; positive control enzyme
T3 construct: gene lacZ; pET29a (SalI/XhoI), E. coli BL21(DE3) pLysS, Ni-NTA (vector tags kept)
T3 sequence (A0A2Z4WWH8 1-753): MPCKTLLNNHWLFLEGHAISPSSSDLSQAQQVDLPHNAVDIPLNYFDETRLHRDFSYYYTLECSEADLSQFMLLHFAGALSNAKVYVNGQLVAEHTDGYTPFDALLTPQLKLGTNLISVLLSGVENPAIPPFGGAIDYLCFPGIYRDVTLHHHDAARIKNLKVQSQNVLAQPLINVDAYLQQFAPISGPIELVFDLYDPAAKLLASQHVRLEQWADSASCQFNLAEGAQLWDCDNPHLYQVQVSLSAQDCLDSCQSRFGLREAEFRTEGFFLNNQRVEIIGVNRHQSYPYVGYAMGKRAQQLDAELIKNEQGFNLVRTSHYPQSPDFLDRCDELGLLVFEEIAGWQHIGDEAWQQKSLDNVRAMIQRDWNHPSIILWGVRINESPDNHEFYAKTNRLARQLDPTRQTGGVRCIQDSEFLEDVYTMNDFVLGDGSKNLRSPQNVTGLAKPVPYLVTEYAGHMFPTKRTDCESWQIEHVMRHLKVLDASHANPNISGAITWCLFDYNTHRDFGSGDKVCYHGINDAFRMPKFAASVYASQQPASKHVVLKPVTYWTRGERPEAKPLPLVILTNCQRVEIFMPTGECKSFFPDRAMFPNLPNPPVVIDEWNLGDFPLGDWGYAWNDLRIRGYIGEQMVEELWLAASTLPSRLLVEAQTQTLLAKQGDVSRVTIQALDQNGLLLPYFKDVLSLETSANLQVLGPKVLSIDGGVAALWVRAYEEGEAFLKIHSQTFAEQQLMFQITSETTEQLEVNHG

OC[C@H]1OC(O)[C@H](O)[C@@H](O[C@@H]2O[C@H]3CO[C@@H]([C@@H]2O)[C@@H]3O)[C@H]1O (stereo partly drawn) [neoagarobiose]
Km (CL5012): 4.45 mg ml^–1

OC[C@H]1O[C@@H](O[C@H]2[C@H]3OC[C@@H]2O[C@@H](O[C@H]2[C@@H](O)[C@@H](CO)OC(O)[C@@H]2O)[C@H]3O)[C@H](O)[C@@H](O)[C@H]1O (stereo partly drawn) [agarotriose]
Km (CL4994): 3.90 mg ml^–1
TLC of products (AgWH2A): depolymerization products of agarotriose by the reported ABG AgWH2A
